Reference: US7118895B2, “Process for producing aglycon by using diglycosidase and flavor-improved food containing the aglycon and converting agent to be used in the process” (Amano Enzyme Inc., priority 2000, dated 2006)

Tested on: Crude diglycosidase
Experiment: Examination of pH in the conversion into isoflavone aglycons by diglycosidase using soybean materials
Assay type: biochemical, Penicillium multicolor IAM7153
Details: for Decomposition efficiency of glycitin family in roasted soy flour / Decomposition efficiency of glycitin family in soymilk: 55° C.
Description: A substrate solution of 450 μL was prepared by suspending 50 mg of each soybean material (roasted soy flour (manufactured by Fuji Shokuryo K.K.), soymilk (manufactured by Gitoh Shokuhin K.K.), defatted soybean (manufactured by Fuji Seiyu K.K.), concentrated soybean protein (manufactured by Fuji Seiyu K.K.)), and adjusting the pH to 2 to 11 with hydrochloric acid or sodium hydroxide. Each enzyme solution of pH 2–11 wherein diglycosidase activity of crude diglycosidase was adjusted to 1.88 AU/mL was added thereto in an amount of 50 μL and the whole was reacted at 55° C. at the total volume of 500 μL. To the reaction mixture was added 700 μL of ethanol after 0, 1, 3, and 6 hours of the reaction. After stirring and ultrasonication, the mixture was subjected to centrifugal separation at 15,000 rpm and 4° C. for 10 minutes. The supernatant was filtered through a filter and the existence of isoflavone glycosides and aglycon isoflavones contained in the reaction mixture was detected by HLPC (Tables 15 to 26).

[1] = pH6.6, heat treatment of enzyme: no, reaction time 0 h
[2] = pH6.6, heat treatment of enzyme: no, reaction time 1 h
[3] = pH6.6, heat treatment of enzyme: no, reaction time 3 h
[4] = pH6.6, heat treatment of enzyme: no, reaction time 6 h
[5] = pH6.6, heat treatment of enzyme: yes, reaction time 6 h

Decomposition efficiency of glycitin family in roasted soy flour (pH5, heat treatment of enzyme no, reaction time 0 h): 34.8 | Decomposition efficiency of glycitin family in roasted soy flour (pH5, heat treatment of enzyme no, reaction time 1 h): 22.9 | Decomposition efficiency of glycitin family in roasted soy flour (pH5, heat treatment of enzyme no, reaction time 3 h): 6.5 | Decomposition efficiency of glycitin family in roasted soy flour (pH5, heat treatment of enzyme no, reaction time 6 h): not detected | Decomposition efficiency of glycitin family in roasted soy flour (pH5, heat treatment of enzyme yes, reaction time 6 h): 35.2 | Decomposition efficiency of glycitin family in concentrated soybean protein (pH5.1, heat treatment of enzyme: no, reaction time 0 h): 36.1% | Decomposition efficiency of glycitin family in concentrated soybean protein (pH5.1, heat treatment of enzyme: no, reaction time 1 h): 33.2% | Decomposition efficiency of glycitin family in concentrated soybean protein (pH5.1, heat treatment of enzyme: no, reaction time 3 h): 26.0% | Decomposition efficiency of glycitin family in concentrated soybean protein (pH5.1, heat treatment of enzyme: no, reaction time 6 h): 21.0% | Decomposition efficiency of glycitin family in concentrated soybean protein (pH5.1, heat treatment of enzyme: yes, reaction time 6 h): 35.8% | Decomposition efficiency of glycitin family in defatted soybean (pH5.4, heat treatment of enzyme: no, reaction time 0 h): not detected | Decomposition efficiency of glycitin family in defatted soybean (pH5.4, heat treatment of enzyme: no, reaction time 1 h): not detected | Decomposition efficiency of glycitin family in defatted soybean (pH5.4, heat treatment of enzyme: no, reaction time 3 h): not detected | Decomposition efficiency of glycitin family in defatted soybean (pH5.4, heat treatment of enzyme: no, reaction time 6 h): not detected | Decomposition efficiency of glycitin family in defatted soybean (pH5.4, heat treatment of enzyme: yes, reaction time 6 h): not detected | Decomposition efficiency of glycitin family in soymilk (pH6.2, heat treatment of enzyme no, reaction time 0 h): not detected | Decomposition efficiency of glycitin family in soymilk (pH6.2, heat treatment of enzyme no, reaction time 1 h): not detected | Decomposition efficiency of glycitin family in soymilk (pH6.2, heat treatment of enzyme no, reaction time 3 h): not detected | Decomposition efficiency of glycitin family in soymilk (pH6.2, heat treatment of enzyme no, reaction time 6 h): not detected | Decomposition efficiency of glycitin family in soymilk (pH6.2, heat treatment of enzyme yes, reaction time 6 h): not detected | Decomposition efficiency of glycitin family in roasted soy flour (pH6.5, heat treatment of enzyme no, reaction time 0 h): 35.4 | Decomposition efficiency of glycitin family in roasted soy flour (pH6.5, heat treatment of enzyme no, reaction time 1 h): 35.0 | Decomposition efficiency of glycitin family in roasted soy flour (pH6.5, heat treatment of enzyme no, reaction time 3 h): 19.7 | Decomposition efficiency of glycitin family in roasted soy flour (pH6.5, heat treatment of enzyme no, reaction time 6 h): 11.9 | Decomposition efficiency of glycitin family in roasted soy flour (pH6.5, heat treatment of enzyme yes, reaction time 6 h): 35.4 | Decomposition efficiency of glycitin family in concentrated soybean protein [1]: 36.1% | Decomposition efficiency of glycitin family in defatted soybean [1]: not detected | Decomposition efficiency of glycitin family in concentrated soybean protein [2]: 34.8% | Decomposition efficiency of glycitin family in defatted soybean [2]: not detected | Decomposition efficiency of glycitin family in concentrated soybean protein [3]: 32.4% | Decomposition efficiency of glycitin family in defatted soybean [3]: not detected | Decomposition efficiency of glycitin family in concentrated soybean protein [4]: 29.5% | Decomposition efficiency of glycitin family in defatted soybean [4]: not detected | Decomposition efficiency of glycitin family in concentrated soybean protein [5]: 35.2% | Decomposition efficiency of glycitin family in defatted soybean [5]: not detected | Decomposition efficiency of glycitin family in soymilk (pH7.2, heat treatment of enzyme no, reaction time 0 h): not detected | Decomposition efficiency of glycitin family in soymilk (pH7.2, heat treatment of enzyme no, reaction time 1 h): not detected | Decomposition efficiency of glycitin family in soymilk (pH7.2, heat treatment of enzyme no, reaction time 3 h): not detected | Decomposition efficiency of glycitin family in soymilk (pH7.2, heat treatment of enzyme no, reaction time 6 h): not detected | Decomposition efficiency of glycitin family in soymilk (pH7.2, heat treatment of enzyme yes, reaction time 6 h): not detected | Decomposition efficiency of glycitin family in defatted soybean (pH7.8, heat treatment of enzyme: no, reaction time 0 h): not detected | Decomposition efficiency of glycitin family in defatted soybean (pH7.8, heat treatment of enzyme: no, reaction time 1 h): not detected | Decomposition efficiency of glycitin family in defatted soybean (pH7.8, heat treatment of enzyme: no, reaction time 3 h): not detected | Decomposition efficiency of glycitin family in defatted soybean (pH7.8, heat treatment of enzyme: no, reaction time 6 h): not detected | Decomposition efficiency of glycitin family in defatted soybean (pH7.8, heat treatment of enzyme: yes, reaction time 6 h): not detected | Decomposition efficiency of glycitin family in roasted soy flour (pH8.5, heat treatment of enzyme no, reaction time 0 h): 31.0 | Decomposition efficiency of glycitin family in roasted soy flour (pH8.5, heat treatment of enzyme no, reaction time 1 h): 32.4 | Decomposition efficiency of glycitin family in roasted soy flour (pH8.5, heat treatment of enzyme no, reaction time 3 h): 30.6 | Decomposition efficiency of glycitin family in roasted soy flour (pH8.5, heat treatment of enzyme no, reaction time 6 h): 30.2 | Decomposition efficiency of glycitin family in roasted soy flour (pH8.5, heat treatment of enzyme yes, reaction time 6 h): 31.7 | Decomposition efficiency of glycitin family in concentrated soybean protein (pH8.6, heat treatment of enzyme: no, reaction time 0 h): 33.0% | Decomposition efficiency of glycitin family in concentrated soybean protein (pH8.6, heat treatment of enzyme: no, reaction time 1 h): 32.6% | Decomposition efficiency of glycitin family in concentrated soybean protein (pH8.6, heat treatment of enzyme: no, reaction time 3 h): 32.6% | Decomposition efficiency of glycitin family in concentrated soybean protein (pH8.6, heat treatment of enzyme: no, reaction time 6 h): 32.0% | Decomposition efficiency of glycitin family in concentrated soybean protein (pH8.6, heat treatment of enzyme: yes, reaction time 6 h): 31.6% | Decomposition efficiency of glycitin family in soymilk (pH11.6, heat treatment of enzyme no, reaction time 0 h): not detected | Decomposition efficiency of glycitin family in soymilk (pH11.6, heat treatment of enzyme no, reaction time 1 h): not detected | Decomposition efficiency of glycitin family in soymilk (pH11.6, heat treatment of enzyme no, reaction time 3 h): not detected | Decomposition efficiency of glycitin family in soymilk (pH11.6, heat treatment of enzyme no, reaction time 6 h): not detected | Decomposition efficiency of glycitin family in soymilk (pH11.6, heat treatment of enzyme yes, reaction time 6 h): not detected
Compound: COc1cc2c(=O)c(-c3ccc(O)cc3)coc2cc1O[C@@H]1O[C@H](COC(C)=O)[C@@H](O)[C@H](O)[C@H]1O [acetylglycitin, 6″-O-acetylglycitin]
